Measured values reported in US9034791B2, “Method for controlling noxious organisms” (Sumitomo Chemical Company, Limited, priority 2012, dated 2015).

Key:
Type in all cases: in vivo
Conditions in all cases: day 7 after sowing, scale 0 to 100
Ivyleaf morningglory [1] = assay: Pot test, herbicidal effect with fludioxonil-treated soybean seeds and soil-applied PPO inhibitor
Description: (§1) The evaluation of the herbicidal effect is classified into 0 to 100, in which the numeral “0” indicates no or little difference in the state of germination or growth of test weeds as compared with the untreated weeds at the time of the investigation, and the numeral “100” indicates the complete death of the test plants or the complete suppression of their germination or growth.
(§2) In a plastic cup of 100 mm in inside diameter and 40 mm in height, 14.25 mg of a fludioxonil suspension (a suspension containing 20% of fludioxonil, trade name: Savior flowable, manufactured by Syngenta Japan K. K.) and 40 soybean seeds were placed. The plastic cup was shaken by the hand so that the fludioxonil suspension was attached to the soybean seeds. The weight of 40 soybean seeds was 9.55 g, and the amount of fludioxonil by the above treatment was calculated as 30 g per 100 kg of the soybean seeds.
In the same manner, 151.4 mg of the fludioxonil suspension was attached to 40 soybean seeds. The weight of 40 soybean seeds was 10.1 g, and the amount of fludioxonil by the above treatment was calculated as 300 g per 100 kg of the soybean seeds.
(§3) A soil was packed in a plastic pot of 120 mm in inside diameter×80 mm in height. The above treated soybean seeds were sown in this pot at a rate of two seeds per pot, and the seeds of ivyleaf morningglory were sown at a rate of four seeds per pot. On the day of sowing the soybean seeds and after sowing the soybean seeds, an aqueous diluted solution (113 mg of active ingredient/L or 225 mg of active ingredient/L) of a flumioxazin granular wettable powder (a granular wettable powder containing 51% of flumioxazin, trade name: Valor SX, manufactured by Valent USA), an aqueous diluted solution (226 mg of active ingredient/L or 1130 mg of active ingredient/L) of a sulfentrazone granular wettable powder (a granular wettable powder containing 75% of sulfentrazone, trade name: Cover, manufactured by DuPont), or an aqueous diluted solution (113 mg/L or 226 mg/L) of saflufenacil was uniformly sprayed on the soil surface with a sprayer so as to apply the amount described in Tables 1 to 3. The aqueous diluted solution of saflufenacil was prepared by dissolving a predetermined amount of saflufenacil in acetone containing 2% (w/v) of Tween 20, and diluting this solution with water so as to have an acetone concentration of 10% by volume.
On day 7 after sowing the seeds of soybean and ivyleaf morningglory, the herbicidal effect was investigated.

Ivyleaf morningglory [2] = assay: Pot test, herbicidal effect with fludioxonil-treated corn seeds and soil-applied PPO inhibitor
Description: as §1
as §2, with “19.8” for “14.25”, “corn” for “soybean”, “13.2” for “9.55”
In the same manner, 193.5 mg of the fludioxonil suspension was attached to 40 corn seeds. The weight of 40 corn seeds was 12.9 g, and the amount of fludioxonil by the above treatment was calculated as 300 g per 100 kg of the corn seeds.
as §3, with “treated corn” for “treated soybean”, “the corn” for “the soybean”, “Tables 4” for “Tables 1”, “to 6.” for “to 3.”
On day 7 after sowing the seeds of corn and ivyleaf morningglory, the herbicidal effect was investigated.

Ivyleaf morningglory [3] = assay: Pot test, herbicidal effect with fludioxonil-treated cotton seeds and soil-applied PPO inhibitor
Description: as §1
In a plastic cup of 100 mm in inside diameter and 40 mm in height, 8.55 mg of a fludioxonil suspension (a suspension containing 20% of fludioxonil, trade name: Savior flowable, manufactured by Syngenta Japan K. K.) and 40 cotton seeds were placed. The plastic cup was shaken by the hand so that the fludioxonil suspension was attached to the cotton seeds. The weight of 40 cottonseeds was 5.7 g, and the amount of fludioxonil by the above treatment was calculated as 30 g per 100 kg of the cotton seeds.
In the same manner, 84.8 mg of the fludioxonil suspension was attached to 40 cotton seeds. The weight of 40 cotton seeds was 5.65 g, and the amount of fludioxonil by the above treatment was calculated as 300 g per 100 kg of the cotton seeds.
as §3, with “above cotton” for “above treated soybean”, “the cotton” for “the soybean”, “Tables 7” for “Tables 1”, “to 9.” for “to 3.”
On day 7 after sowing the seeds of cotton and ivyleaf morningglory, the herbicidal effect was investigated.

[4] = fludioxonil None, PPO inhibitor 100 g/ha soil surface
[5] = fludioxonil None, PPO inhibitor 50 g/ha soil surface
[6] = fludioxonil None, PPO inhibitor 500 g/ha soil surface
[7] = fludioxonil 30 g/100 kg of seeds, PPO inhibitor None
[8] = fludioxonil 300 g/100 kg of seeds, PPO inhibitor None

SMILES: CC(C)N(C)S(=O)(=O)NC(=O)c1cc(-n2c(=O)cc(C(F)(F)F)n(C)c2=O)c(F)cc1Cl [saflufenacil]
- Herbicidal effect Ivyleaf morningglory (Ivyleaf morningglory [1]; [4]): 40
- Herbicidal effect Ivyleaf morningglory (Ivyleaf morningglory [2]; [4]): 30
- Herbicidal effect Ivyleaf morningglory (Ivyleaf morningglory [3]; [5]): 30
- Herbicidal effect Ivyleaf morningglory (Ivyleaf morningglory [3]; [4]): 40

SMILES: C#CCN1C(=O)COc2cc(F)c(N3C(=O)C4=C(CCCC4)C3=O)cc21 [flumioxazin]
- Herbicidal effect Ivyleaf morningglory (Ivyleaf morningglory [1]; [4]): 20
- Herbicidal effect Ivyleaf morningglory (Ivyleaf morningglory [2]; [5]): 20
- Herbicidal effect Ivyleaf morningglory (Ivyleaf morningglory [2]; [4]): 50
- Herbicidal effect Ivyleaf morningglory (Ivyleaf morningglory [3]; [4]): 30

SMILES: Cc1nn(-c2cc(NS(C)(=O)=O)c(Cl)cc2Cl)c(=O)n1C(F)F [sulfentrazone]
- Herbicidal effect Ivyleaf morningglory (Ivyleaf morningglory [1]; [4]): 20
- Herbicidal effect Ivyleaf morningglory (Ivyleaf morningglory [1]; [6]): 60
- Herbicidal effect Ivyleaf morningglory (Ivyleaf morningglory [2]; [4]): 40
- Herbicidal effect Ivyleaf morningglory (Ivyleaf morningglory [3]; [6]): 30

SMILES: N#Cc1c[nH]cc1-c1cccc2c1OC(F)(F)O2 [fludioxonil]
- Herbicidal effect Ivyleaf morningglory (Ivyleaf morningglory [1]; [7]): 0
- Herbicidal effect Ivyleaf morningglory (Ivyleaf morningglory [1]; [8]): 0
- Herbicidal effect Ivyleaf morningglory (Ivyleaf morningglory [2]; [7]): 0
- Herbicidal effect Ivyleaf morningglory (Ivyleaf morningglory [2]; [8]): 0
- Herbicidal effect Ivyleaf morningglory (Ivyleaf morningglory [3]; [7]): 0
- Herbicidal effect Ivyleaf morningglory (Ivyleaf morningglory [3]; [8]): 0
